Experimental data as given in patent US11666589B2, “Pivarubicin and benzarubicin compositions” (Paradox Pharmaceuticals, Inc., priority 2020, dated 2023).

Assays:
[1] = tested on: 293 embryonic human kidney cells; assay: Drug biotransformation analysis (HPLC of intracellular drug) in 293 cells; type: in vitro ADME
From the text: (§1) Intracellular drug was extracted and analyzed by fluorescence HPLC as described previously.

[2] = tested on: 32D.3, J774.2 and 293 cells; assay: Biotransformation to AD 288 after uptake into cells; type: in vitro ADME; settings: 8 hours after drug uptake into cells
From the text: as §1

[3] = tested on: 32D.3 murine myeloid cells; assay: Drug biotransformation analysis (HPLC of intracellular drug) in 32D.3 cells; type: in vitro ADME
From the text: as §1

[4] = tested on: J774.2 murine macrophage-like cells; assay: Drug biotransformation analysis (HPLC of intracellular drug) in J774.2 cells; type: in vitro ADME
From the text: as §1

CEM/VLB-100 = settings: CEM/VLB-100, selecting drug; cited from earlier work
CEM/VLB-10 = settings: CEM/VLB-10, selecting drug; cited from earlier work

Row | SMILES | % Parent Compound ([1]; 293, 1 hr, 1 μM drug, 37° C.) [%] | % Parent Compound ([1]; 293, 8 hr (1 hr drug + 7 hours drug-free medium)) [%] | biotransformation to N-benzyladriamycin (AD 288) [2] | % Parent Compound ([3]; 32D.3, 1 hr, 1 μM drug, 37° C.) [%] | % Parent Compound ([3]; 32D.3, 8 hr (1 hr drug + 7 hours drug-free medium)) [%] | % Parent Compound ([4]; J774.2, 1 hr, 1 μM drug, 37° C.) [%] | % Parent Compound ([4]; J774.2, 8 hr (1 hr drug + 7 hours drug-free medium)) [%] | resistance (CEM/VLB-100) [fold] | resistance (CEM/VLB-10) [fold]
1 | CCCCC(=O)OCC(=O)[C@]1(O)Cc2c(O)c3c(c(O)c2[C@@H](O[C@H]2C[C@H](NCc4ccccc4)[C@H](O)[C@H](C)O2)C1)C(=O)c1c(OC)cccc1C3=O [AD 198, N-Benzyladriamycin-14-valerate] | 80 | 50 | approximately 50% | 90 | 56 | 90 | 50 | – | –
2 | CC[C@]1(O)C[C@@H]2CN(CCc3c([nH]c4ccccc34)[C@@](C(=O)OC)(c3cc4c(cc3OC)N(C)[C@H]3[C@@](O)(C(=O)OC)[C@H](OC(C)=O)[C@]5(CC)C=CCN6CC[C@]43[C@@H]65)C2)C1 [vinblastine] | – | – | – | – | – | – | – | 269 | 10.6
